Data from PubChem BioAssay (NCI).
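1) Cells in 96-well plates. 2) Compound, 48 h, 5 concentrations. 3) Linear interpolation between surrounding doses. 4) Unreached endpoint = highest concentration. At the GI50, growth is halved. TGI denotes the concentration required for complete inhibition of growth.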

system: SK-MEL-2 melanoma; assay: NCI anticancer screen, dose series, 48 h

Question: Which GI50 does the source give for `COc1cc(-c2ccc3c(c2)NC(=O)/C3=C\c2ccc[nH]2)ccc1O` here?
Answer: 34 nM

Question: And the TGI?
Answer: > 50000 nM

Question: What does the source list for `O=C(NC1=CC(=O)c2ccccc2C1=O)c1ccccc1`?
Answer: GI50: 534 nM; TGI: 15700 nM

system: SK-MEL-28 melanoma; assay: NCI anticancer screen, dose series, 48 h

Question: How did the GI50 turn out when `COc1nc2ccccc2cc1-c1nc2c(cnn2-c2ccc(Br)cc2)c(=O)[nH]1` was run?
Answer: 361 nM

Question: What about the TGI of the same compound?
Answer: > 50000 nM

Question: Which TGI does the source give for `CCN(CC)C(=S)N/N=C(/C)c1cccc(/C(C)=N\NC(=S)N(CC)CC)n1` here?
Answer: 3880 nM

Question: With `COc1cc(-c2ccc3c(c2)NC(=O)/C3=C\c2ccc[nH]2)ccc1O` as the compound, how does the GI50 read?
Answer: 2190 nM

Question: What about the TGI of the same compound?
Answer: > 50000 nM

Question: For `O=C(NC1=CC(=O)c2ccccc2C1=O)c1ccccc1`, which GI50 is on record?
Answer: 841 nM

Question: What about the TGI of the same compound?
Answer: 15300 nM

system: SK-MEL-5 melanoma; assay: NCI anticancer screen, dose series, 48 h

Question: With `COc1nc2ccccc2cc1-c1nc2c(cnn2-c2ccc(Br)cc2)c(=O)[nH]1` as the compound, how does the GI50 read?
Answer: 29.3 nM

Question: For `CCN(CC)C(=S)N/N=C(/C)c1cccc(/C(C)=N\NC(=S)N(CC)CC)n1`, which TGI is on record?
Answer: 8200 nM

Question: How did the GI50 turn out when `COc1cc(-c2ccc3c(c2)NC(=O)/C3=C\c2ccc[nH]2)ccc1O` was run?
Answer: 36.8 nM

Question: What about the TGI of the same compound?
Answer: 1690 nM

Question: Which results are given for `O=C(NC1=CC(=O)c2ccccc2C1=O)c1ccccc1`?
Answer: GI50: 399 nM; TGI: 1480 nM

system: SK-OV-3 ovarian; assay: NCI anticancer screen, dose series, 48 h

Question: With `COc1nc2ccccc2cc1-c1nc2c(cnn2-c2ccc(Br)cc2)c(=O)[nH]1` as the compound, how does the GI50 read?
Answer: 63.8 nM

Question: What about the TGI of the same compound?
Answer: 24500 nM

Question: Which TGI does the source give for `CCN(CC)C(=S)N/N=C(/C)c1cccc(/C(C)=N\NC(=S)N(CC)CC)n1` here?
Answer: 5430 nM

Question: With `COc1cc(-c2ccc3c(c2)NC(=O)/C3=C\c2ccc[nH]2)ccc1O` as the compound, how does the GI50 read?
Answer: 34.1 nM

Question: And the TGI?
Answer: > 50000 nM

Question: Which GI50 does the source give for `O=C(NC1=CC(=O)c2ccccc2C1=O)c1ccccc1` here?
Answer: 3060 nM

Question: And the TGI?
Answer: 14300 nM

system: SN12C renal; assay: NCI anticancer screen, dose series, 48 h

Question: For `COc1nc2ccccc2cc1-c1nc2c(cnn2-c2ccc(Br)cc2)c(=O)[nH]1`, which GI50 is on record?
Answer: 73.9 nM

Question: And the TGI?
Answer: > 50000 nM

Question: Which TGI does the source give for `CCN(CC)C(=S)N/N=C(/C)c1cccc(/C(C)=N\NC(=S)N(CC)CC)n1` here?
Answer: 12400 nM

Question: What does the source list for `COc1cc(-c2ccc3c(c2)NC(=O)/C3=C\c2ccc[nH]2)ccc1O`?
Answer: GI50: 42.3 nM; TGI: > 50000 nM

Question: For `O=C(NC1=CC(=O)c2ccccc2C1=O)c1ccccc1`, which GI50 is on record?
Answer: 1490 nM

Question: What about the TGI of the same compound?
Answer: 6010 nM

system: SNB-19 CNS; assay: NCI anticancer screen, dose series, 48 h

Question: `COc1nc2ccccc2cc1-c1nc2c(cnn2-c2ccc(Br)cc2)c(=O)[nH]1` was tested. Which GI50 did it give?
Answer: 24.4 nM

Question: And the TGI?
Answer: 15100 nM

Question: For `CCN(CC)C(=S)N/N=C(/C)c1cccc(/C(C)=N\NC(=S)N(CC)CC)n1`, which TGI is on record?
Answer: 18400 nM

Question: What does the source list for `COc1cc(-c2ccc3c(c2)NC(=O)/C3=C\c2ccc[nH]2)ccc1O`?
Answer: GI50: 27.7 nM; TGI: > 50000 nM

Question: Which results are given for `O=C(NC1=CC(=O)c2ccccc2C1=O)c1ccccc1`?
Answer: GI50: 2900 nM; TGI: 16400 nM

system: SNB-75 CNS; assay: NCI anticancer screen, dose series, 48 h

Question: With `COc1nc2ccccc2cc1-c1nc2c(cnn2-c2ccc(Br)cc2)c(=O)[nH]1` as the compound, how does the GI50 read?
Answer: 16.1 nM

Question: What about the TGI of the same compound?
Answer: 1460 nM

Question: Which TGI does the source give for `CCN(CC)C(=S)N/N=C(/C)c1cccc(/C(C)=N\NC(=S)N(CC)CC)n1` here?
Answer: 10200 nM

Question: Which GI50 does the source give for `COc1cc(-c2ccc3c(c2)NC(=O)/C3=C\c2ccc[nH]2)ccc1O` here?
Answer: 20.1 nM

Question: What about the TGI of the same compound?
Answer: > 50000 nM

Question: Which results are given for `O=C(NC1=CC(=O)c2ccccc2C1=O)c1ccccc1`?
Answer: GI50: 373 nM; TGI: 8100 nM

system: SR leukemia; assay: NCI anticancer screen, dose series, 48 h

Question: For `COc1nc2ccccc2cc1-c1nc2c(cnn2-c2ccc(Br)cc2)c(=O)[nH]1`, which GI50 is on record?
Answer: 11.6 nM

Question: And the TGI?
Answer: 5410 nM

Question: `CCN(CC)C(=S)N/N=C(/C)c1cccc(/C(C)=N\NC(=S)N(CC)CC)n1` was tested. Which TGI did it give?
Answer: 2400 nM

Question: How did the GI50 turn out when `COc1cc(-c2ccc3c(c2)NC(=O)/C3=C\c2ccc[nH]2)ccc1O` was run?
Answer: 14 nM

Question: What about the TGI of the same compound?
Answer: > 30500 nM

Question: What does the source list for `O=C(NC1=CC(=O)c2ccccc2C1=O)c1ccccc1`?
Answer: GI50: 709 nM; TGI: 4850 nM

system: SW-620 colon; assay: NCI anticancer screen, dose series, 48 h

Question: What does the source list for `COc1nc2ccccc2cc1-c1nc2c(cnn2-c2ccc(Br)cc2)c(=O)[nH]1`?
Answer: GI50: 22.8 nM; TGI: > 50000 nM

Question: `CCN(CC)C(=S)N/N=C(/C)c1cccc(/C(C)=N\NC(=S)N(CC)CC)n1` was tested. Which TGI did it give?
Answer: 15200 nM

Question: What does the source list for `COc1cc(-c2ccc3c(c2)NC(=O)/C3=C\c2ccc[nH]2)ccc1O`?
Answer: GI50: 18.8 nM; TGI: > 50000 nM

Question: What does the source list for `O=C(NC1=CC(=O)c2ccccc2C1=O)c1ccccc1`?
Answer: GI50: 1150 nM; TGI: 2820 nM

system: T-47D breast; assay: NCI anticancer screen, dose series, 48 h

Question: `COc1nc2ccccc2cc1-c1nc2c(cnn2-c2ccc(Br)cc2)c(=O)[nH]1` was tested. Which GI50 did it give?
Answer: 41.3 nM

Question: And the TGI?
Answer: > 50000 nM

Question: Which TGI does the source give for `CCN(CC)C(=S)N/N=C(/C)c1cccc(/C(C)=N\NC(=S)N(CC)CC)n1` here?
Answer: 16900 nM

Question: Which results are given for `COc1cc(-c2ccc3c(c2)NC(=O)/C3=C\c2ccc[nH]2)ccc1O`?
Answer: GI50: 219 nM; TGI: > 50000 nM

Question: What does the source list for `O=C(NC1=CC(=O)c2ccccc2C1=O)c1ccccc1`?
Answer: GI50: 777 nM; TGI: 2680 nM

system: TK-10 renal; assay: NCI anticancer screen, dose series, 48 h

Question: Which GI50 does the source give for `COc1nc2ccccc2cc1-c1nc2c(cnn2-c2ccc(Br)cc2)c(=O)[nH]1` here?
Answer: 210 nM

Question: What about the TGI of the same compound?
Answer: 8800 nM

Question: With `CCN(CC)C(=S)N/N=C(/C)c1cccc(/C(C)=N\NC(=S)N(CC)CC)n1` as the compound, how does the TGI read?
Answer: 11700 nM

Question: What does the source list for `COc1cc(-c2ccc3c(c2)NC(=O)/C3=C\c2ccc[nH]2)ccc1O`?
Answer: GI50: 1720 nM; TGI: > 50000 nM

Question: What does the source list for `O=C(NC1=CC(=O)c2ccccc2C1=O)c1ccccc1`?
Answer: GI50: 2710 nM; TGI: 5380 nM

system: U251 CNS; assay: NCI anticancer screen, dose series, 48 h

Question: Which results are given for `COc1nc2ccccc2cc1-c1nc2c(cnn2-c2ccc(Br)cc2)c(=O)[nH]1`?
Answer: GI50: 24.1 nM; TGI: 7420 nM

Question: Which TGI does the source give for `CCN(CC)C(=S)N/N=C(/C)c1cccc(/C(C)=N\NC(=S)N(CC)CC)n1` here?
Answer: 8740 nM

Question: Which GI50 does the source give for `COc1cc(-c2ccc3c(c2)NC(=O)/C3=C\c2ccc[nH]2)ccc1O` here?
Answer: 22.1 nM

Question: What about the TGI of the same compound?
Answer: > 50000 nM

Question: With `O=C(NC1=CC(=O)c2ccccc2C1=O)c1ccccc1` as the compound, how does the GI50 read?
Answer: 420 nM

Question: And the TGI?
Answer: 11600 nM

system: UACC-257 melanoma; assay: NCI anticancer screen, dose series, 48 h

Question: Which results are given for `COc1nc2ccccc2cc1-c1nc2c(cnn2-c2ccc(Br)cc2)c(=O)[nH]1`?
Answer: GI50: 6770 nM; TGI: > 50000 nM

Question: For `CCN(CC)C(=S)N/N=C(/C)c1cccc(/C(C)=N\NC(=S)N(CC)CC)n1`, which TGI is on record?
Answer: 11000 nM

Question: Which results are given for `O=C(NC1=CC(=O)c2ccccc2C1=O)c1ccccc1`?
Answer: GI50: 1220 nM; TGI: 2570 nM

system: UACC-62 melanoma; assay: NCI anticancer screen, dose series, 48 h

Question: For `COc1nc2ccccc2cc1-c1nc2c(cnn2-c2ccc(Br)cc2)c(=O)[nH]1`, which GI50 is on record?
Answer: 23.4 nM

Question: And the TGI?
Answer: > 50000 nM

Question: How did the TGI turn out when `CCN(CC)C(=S)N/N=C(/C)c1cccc(/C(C)=N\NC(=S)N(CC)CC)n1` was run?
Answer: 8150 nM

Question: Which GI50 does the source give for `COc1cc(-c2ccc3c(c2)NC(=O)/C3=C\c2ccc[nH]2)ccc1O` here?
Answer: 100 nM

Question: And the TGI?
Answer: > 50000 nM

Question: What does the source list for `O=C(NC1=CC(=O)c2ccccc2C1=O)c1ccccc1`?
Answer: GI50: 240 nM; TGI: 799 nM

system: UO-31 renal; assay: NCI anticancer screen, dose series, 48 h

Question: Which GI50 does the source give for `COc1nc2ccccc2cc1-c1nc2c(cnn2-c2ccc(Br)cc2)c(=O)[nH]1` here?
Answer: 60.3 nM

Question: And the TGI?
Answer: > 50000 nM

Question: How did the TGI turn out when `CCN(CC)C(=S)N/N=C(/C)c1cccc(/C(C)=N\NC(=S)N(CC)CC)n1` was run?
Answer: 7940 nM

Question: `COc1cc(-c2ccc3c(c2)NC(=O)/C3=C\c2ccc[nH]2)ccc1O` was tested. Which GI50 did it give?
Answer: 35.4 nM

Question: What about the TGI of the same compound?
Answer: > 50000 nM

Question: How did the GI50 turn out when `O=C(NC1=CC(=O)c2ccccc2C1=O)c1ccccc1` was run?
Answer: 481 nM

Question: And the TGI?
Answer: 2180 nM
